We go through three substances from patent US10463713B2, “Use of AAC-11 inhibitors for the treatment of viral infection” (INSERM (Institut National de la Sante et de la Recherche …, priority 2016, dated 2019).

The subject of data set [1] is normal cells (blood cells from healthy donors). The data set can be described thus: Annexin-V/PI cell death of normal cells / blood cells from healthy donors under low-serum stress. The format is cell-based. The settings on record: 24 hours, increasing concentrations, blood cells from healthy donors (FIG. 1). As to the method: (§1) The indicated cell lines or blood cells from healthy donors were treated for 24 hours in a 37° C. incubator (5% CO2) with increasing concentrations of the Antp-AAC-11-LZ (377-399) before Annexin-V and PI staining. The percentages refer to Annexin-V-positive or Annexin-V-positive/PI-positive staining.
(§2) Detection of phosphatidylserine on apoptotic cells was performed by using an AnnexinV/propidium iodide (PI) detection kit (Beckman Coulter, Immunotech, Marseille, France) according to the manufacturer. Briefly, 5×10^5 cells were incubated in the dark at 4° C. with Annexin V-fluorescein isothiocyanate (FITC) and 2.5 μg/mL PI in phosphate buffer for 10 minutes before 18 000 ungated events were collected within the hour by flow cytometry (FACScalibur, BD Biosciences, Mansfield, Mass.) and analyzed with the ProCellQuest software provided by the manufacturer. In HIV-1 infection assays (see below), cell viability was determined with the help of LIVE/DEAD® Fixable Aqua stain kit as recommended by the manufacturer (Molecular Probes, Life Technologies, Saint Aubin, France).

The subject of the next data set is VSV-G HIV-1-particles. Type of data set: cell-based.
A further data set concerns cancer cells. The data set can be described thus: Annexin-V/PI cell death of cancer cell lines under low-serum stress. The format is cell-based. Conditions: 24 hours, increasing concentrations (FIG. 1). Here is the method: as §1, §2
Another data set deals with SIVmac251. The format is cell-based, SIVmac. Conditions: increasing amounts of peptide, three days, macaque CD4+ T cells (FIG. 4B).
The subject of data set [2] is HIV-1 BaL. Type of data set: cell-based. Conditions: three days; for HIV-1 replication (p24 antigen in supernatants) / elimination of HIV infected CD4+ T cells: 6 μM peptide, HIV-1 BaL, CD4+ T cells (FIG. 3); for HIV-1 replication (p24 antigen in supernatants) / elimination of HIV infected human CD4+ T cells: increasing amounts of peptide, HIV-1BaL, human CD4+ T cells (FIG. 4A upper panel).

For a further data set, the system named is HIV-1BX08. Type of data set: cell-based. The settings on record: increasing amounts of peptide, three days, primary strain HIV-1BX08, human CD4+ T cells (FIG. 4A bottom panel).
Data set [3] relates to HIV-1 BaL. Type of data set: cell-based. Conditions: 4 or 8 μM; added 10 minutes before infection and washed after two hours, or added two hours after infection and kept three days (FIG. 6).

As for “Ac-RQIKIWFKKQNRRMKWKKLQYFARGLQVYIRQLRLALQGKT-NH2 [RT39]”, the “cell death (Annexin-V-positive or Annexin-V-positive/PI-positive staining) of normal cells” value in data set [1] is given as “but not normal cells”. For the same substance, in the data set with VSV-G HIV-1-particles, the “percentage of GFP+ (infected) cells and of viable cells / elimination of HIV infected CD4+ T cells” value is listed as “induce the selective elimination”. The “cell death (Annexin-V-positive or Annexin-V-positive/PI-positive staining) of cancer cells” value with cancer cells is given as “induced cancer cells”. In addition, the “SIVmac251 replication (p27 antigen in supernatants) / elimination of SIVmac infected macaque CD4+ T cells” value with SIVmac251 was “induce the selective elimination”. In the data set on HIV-1 BaL [2], the “HIV-1 replication (p24 antigen in supernatants) / elimination of HIV infected CD4+ T cells” value is recorded as “induce the selective elimination” and the “HIV-1 replication (p24 antigen in supernatants) / elimination of HIV infected human CD4+ T cells” value is “induce the selective elimination”. Moreover, the “HIV-1 replication (p24 antigen in supernatants) / elimination of HIV infected human CD4+ T cells” value in the data set with HIV-1BX08 is listed as “induce the selective elimination”.

On to “RQIKIWFKKQNRRMKWKKAKLNAEKLKDFKIRLQYFARGLQVYIRQLRLALQGKT (Synthetic Antp-AAC-11-LZ (363-399) (RT53))”, for which the “percentage of GFP+ (infected) cells and of viable cells / elimination of HIV infected CD4+ T cells” value with VSV-G HIV-1-particles is given as “induce the selective elimination”. In addition, the “SIVmac251 replication (p27 antigen in supernatants) / elimination of SIVmac infected macaque CD4+ T cells” value with SIVmac251 was “induce the selective elimination”. In the data set on HIV-1 BaL [2], the “HIV-1 replication (p24 antigen in supernatants) / elimination of HIV infected CD4+ T cells” value is given as “induce the selective elimination” and the “HIV-1 replication (p24 antigen in supernatants) / elimination of HIV infected human CD4+ T cells” value is reported as “induce the selective elimination”. For the same substance, in the data set with HIV-1BX08, the “HIV-1 replication (p24 antigen in supernatants) / elimination of HIV infected human CD4+ T cells” value is recorded as “induce the selective elimination”. The “HIV-1 infection of human macrophages” value in the data set on HIV-1 BaL [3] is on record as “block HIV-1 infection in human macrophages”.

In the case of “RQIKIWFKKQNRRMKWKKYFARGLQVYIRQL (Synthetic Antp-AAC-11-LZ (379-391) (RL29))”, the “HIV-1 replication (p24 antigen in supernatants) / elimination of HIV infected CD4+ T cells” value in the data set on HIV-1 BaL [2] was “induce the selective elimination”.
